# Reference: patent publication EP0097071A1, “Benzhydryl sulfinylacetamide derivatives and their therapeutical use” (LABORATOIRE L. LAFON Société anonyme dite:, priority 1982, dated 1983)
# How the values were obtained:
# souris mâles = assay: Global behaviour and reactivities, mouse; format: in vivo
# souris [1] = assay: Traction test; format: in vivo; conditions: 0,5 h after administration, dose not stated
# SNC = assay: Essential activity on the CNS (Tableau I and conclusions of the neuropsychopharmacological study); format: in vivo; conditions: in vivo
# From the text: Dans le tableau I ci-après, on a consigné un certain nombre de composés selon la formule I de façon nullement limitative, en mentionnant l'activité essentielle sur le SNC.
# Les composés de formule I agissent tous sur le SNC. Les produits des exemples 1-3 et 7-8 sont des agents stimulants, en revanche les produits des exemples 4-6 sont des agents sédatifs.
# rats = assay: Interaction with amphetamine (stereotypies); format: in vivo; conditions: rat, 64 mg/kg i.p.
# How it was run: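 Male rats, groups of 6, given test compound i.p. as aqueous gum arabic suspension; amphetamine 2 mg/kg i.p. injected 30 min later and stereotypies scored.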
# souris [2] = assay: Interaction with barbital (sleep); format: in vivo; conditions: 32 mg/kg et 128 mg/kg i.p.
# How it was run: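 Male mice (groups of 10) dosed intraperitoneally with compound suspended in aqueous gum arabic (20 ml/kg); barbital 220 mg/kg i.p. given half an hour later.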
# souris [3] = assay: Motility reduced by habituation to the enclosure; format: in vivo; conditions: dès 8 mg/kg et surtout à 32 mg/kg et 128 mg/kg i.p.
# How it was run: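 Male mice (6 per dose, 12 controls) habituated 18 h in actimeters got compound i.p. as aqueous gum arabic suspension, 20 ml/kg. Returned to enclosures immediately; motility recorded for 30 min starting 30 min post-dose.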
# rat = assay: Interaction with apomorphine, rat; format: in vivo; conditions: 64 mg/kg i.p.
# How it was run: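 Groups of 6 male rats received test compound intraperitoneally as a suspension in aqueous gum arabic (5 ml/kg).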
# souris [4] = assay: Intergroup aggressiveness; format: in vivo; conditions: dose not stated
# How it was run: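 Male mice, housed in groups of 3 on either side of an opaque partition for 3 weeks, received compound i.p. as a gum arabic suspension at 20 ml/kg. After 30 min the partition was removed, and fights were counted over 10 min.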
# souris [5] = assay: Behavioural despair (forced immersion); format: in vivo; conditions: 8 mg/kg, 32 mg/kg et 128 mg/kg i.p.
# How it was run: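 Male mice were dosed i.p. with compound suspended in aqueous gum arabic at 20 ml/kg, 10 per dose. Thirty minutes later each mouse was put in a confined space holding 6 cm of water, and immobility time was scored from minute 2 to minute 6.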
# souris [6] = assay: Interaction with apomorphine, mouse; format: in vivo
# How it was run: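 Male mice, 6 per dose, received the test compound intraperitoneally as an aqueous gum arabic suspension (20 ml/kg).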
# souris [7] = assay: Motility reduced by hypoxic aggression (acute hypobaric anoxia); format: in vivo; conditions: 32 mg/kg, mais surtout 128 mg/kg i.p.
# How it was run: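 Male mice (10 per dose, 20 controls) got compound i.p. as an aqueous gum arabic suspension (20 ml/kg). Thirty minutes later they underwent acute hypobaric anoxia: 600 mm Hg depression over 90 s, then 45 s release. Motility was then recorded in an actimeter for 10 min.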
# souris mâle [8] = assay: Toxicity, DL-0; format: in vivo; conditions: i.p.
# How it was run: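 Male mice dosed intraperitoneally with compound suspended in aqueous gum arabic at 20 ml/kg. Value is DL-0, the minimal non-lethal dose.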
# souris [9] = assay: Spontaneous motility (actimeter); format: in vivo; conditions: 8 mg/kg, 32 mg/kg et 128 mg/kg i.p.
# How it was run: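 Male mice dosed i.p. as a suspension in aqueous gum arabic (20 ml/kg); 30 min later they are placed in an actimeter and motility is recorded for 30 min, 6 mice per dose, 12 controls.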
# souris [10] = assay: Asphyxic anoxia (gallamine triethiodide); format: in vivo; conditions: dose not stated
# How it was run: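 Male mice, 10 per dose, given compound i.p. as suspension in aqueous gum arabic (20 ml/kg). Gallamine triethiodide 32 mg/kg i.p. injected 30 min after compound.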
# homme = assay: Clinical trials; format: in vivo
# From the text: Les études cliniques ont porté sur les troubles de la vigilance, de l'éveil et des états confusionnels, d'une part, et sur les troubles de l'affectivité, du contact et des dépressions, d'autre part.
# rats mâles = assay: Global behaviour and reactivities, rat; format: in vivo
# souris [11] = assay: Interaction with oxotremorine; format: in vivo
# How it was run: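 Groups of 6 male mice received test compound i.p. as a suspension in aqueous gum arabic (20 ml/kg).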
# souris [12] = assay: Four plates test; format: in vivo; conditions: 0,5 h after administration, dose not stated
# souris [13] = assay: Interaction with reserpine; format: in vivo; conditions: 32 mg/kg, 64 mg/kg et 128 mg/kg i.p.
# souris groupées = assay: Toxicity in grouped mice; conditions: in vivo
# souris mâle [14] = assay: Pentobarbital-induced sleep duration; format: in vivo; conditions: dose 32 mg/kg i.p., 0,5 h before pentobarbital
# From the text: Les composés selon l'invention se distinguent du benzhydrylsulfinylacétamide (CRL 40476) précité par une différence d'action vis-à-vis du sommeil barbiturique. […]. Cette différence d'action qui est intéressante sur le plan thérapeutique est illustrée par le tableau IV
# souris [15] = assay: Electroshock; format: in vivo; conditions: dose not stated
smiles,measurement,setting,value
"NC(=O)C[S+]([O-])C(c1ccc(F)cc1)c1ccc(F)cc1 (centres unmarked) [Exemple 8, 4,4'-difluorobenzhydrylsulfinylacétamide]",signes de stimulation sympathique périphérique,souris mâles; souris,absence
same,Observations (comportement global et réactivités),"souris mâles; souris, 2 mg/kg i.p.",réactivité au toucher pendant 2 h
same,Observations (comportement global et réactivités),"souris mâles; souris, 8 mg/kg i.p.",éxcitation tardive débutant 2 h après administration - réactivité au toucher pendant 2 h
same,Observations (comportement global et réactivités),"souris mâles; souris, 512 mg/kg i.p.","démarche titubante pendant 0,75 h, - convulsions (66% des animaux) pendant 0,75 h"
same,mortalité,"souris mâles; souris, 512 mg/kg i.p.","4 animaux sur 6 en 1 h, puis 2 animaux sur 6 en 24 h"
same,convulsions,"souris mâles; souris, 512 mg/kg i.p., pendant 0,75 h",66 % des animaux
same,Observations (comportement global et réactivités),"souris mâles; souris, 32 mg/kg i.p.",excitation tardive débutant 1 h après administration et durant 2 h - stéréotypies 3 h après administration - réactivité au toucher pendant 24 h
same,Observations (comportement global et réactivités),"souris mâles; souris, 128 mg/kg i.p.","excitation avec stéréotypies pen-dant 3 h - augmentation de la réactivité au toucher pendant 24 h - hypothermie (-1,3°C) pendant 3 h"
same,hypothermie,"souris mâles; souris, 128 mg/kg i.p.","-1,3 °C"
same,Observations (comportement global et réactivités),"souris mâles; souris, 256 mg/kg i.p.","excitation débutant 0,5 h après adminis-tration - stéréotypies"
same,mortalité,"souris mâles; souris, 256 mg/kg i.p.",pas de mortalité
same,résorption,souris mâles; supposed from the late onset of several effects and the kinetic study of stereotypies,résorption lente
same,déficit moteur (traction),souris [1],ne provoque pas d'incapacité motrice majeure
same,Activité sur le SNC,SNC,stimulant
same,conclusion of the neuropsychopharmacological study: main type of CNS effect,SNC,composante excitante
same,stéréotypies amphétaminiques,rats,potentialisation
same,durée du sommeil barbiturique,souris [2],diminue nettement
same,activité motrice chez la souris habituée à son enceinte,souris [3],reprise d'activité motrice très nette
same,stéréotypies induites par l'apomorphine,rat,augmente
same,agressivité intergroupes (nombre de combats),souris [4],n'a pas d'effet antiagressif
same,durée d'immobilité de la souris placée en immersion forcée,souris [5],diminue nettement
same,own effect on temperature,souris [6]; 32 mg/kg et 128 mg/kg i.p.,hypothermisant
same,hypothermie induite par l'apomorphine,"souris [6]; 32 mg/kg et 128 mg/kg i.p., apomorphine 1 et 16 mg/kg",aggrave
same,comportement de verticalisation et stéréotypies (apomorphine),souris [6]; dose not stated,ne modifie pas
same,récupération motrice après séjour bref dans une enceinte à pression réduite,souris [7],amélioration significative
same,DL-O,souris mâle [8],supérieure à 256 mg/kg
same,motilité spontanée,souris [9],augmentation nette
same,délai d'apparition des convulsions et de la mort consécutives à une anoxie asphyxique,souris [10],ne modifie pas
same,action contre l'énurésie,homme,agissent efficacement
same,résultats en tant que médicaments de l'éveil,"homme; notamment vieillard, gélules ou comprimés de 100 à 200 mg, 1 à 3 par jour",excellents résultats
same,Observations (comportement global et réactivités),rats mâles; 16 mg/kg i.p.,excitation - réactivité au toucher pendant 2 h
same,Observations (comportement global et réactivités),rats mâles; 64 mg/kg i.p.,excitation - réactivité au toucher - fréquence respiratoire augmentée pendant 24 h
same,hypothermie induite par l'oxotrémorine,"souris [11]; 2 mg/kg, 8 mg/kg, 32 mg/kg et 128 mg/kg i.p.",antagonise modérément et tardivement
same,signes de stimulation cholinergique périphérique dus à l'oxotrémorine,souris [11]; dose not stated,ne modifie pas
same,tremblements induits par l'oxotrémorine,souris [11]; dose not stated,ne sont pratiquement pas modifiés
same,nombre de passages punis,souris [12],n'entraîne pas d'augmentation
same,hypothermie réserpinique,souris [13],antagonise tardivement
same,ptôsis réserpinique,souris [13]; à 24 h,antagonise également mais de façon modérée
same,toxicité particulière chez les souris groupées,souris groupées,absence de toxicité particulière
same,Action sur la durée du sommeil induit par le pentobarbital (50 mg/kg i.p.) effet,souris mâle [14],(a)
same,effets convulsivants de l'électrochoc,souris [15],ne modifie pratiquement pas
